Earlier results, collected in patent US6683056B2, “O-aryl glucoside SGLT2 inhibitors and method” (Bristol-Myers Squibb Company, priority 2000, dated 2004).

What was measured:
[1] = system: several diabetic rodent models and one canine diabetes model
normal animals = settings: despite the presence of glycosuria
[2] = oral
SGLT1 = biological target: T1, SGLT1 (Homo sapiens, UniProt P13866)
T1 sequence (P13866 1-664): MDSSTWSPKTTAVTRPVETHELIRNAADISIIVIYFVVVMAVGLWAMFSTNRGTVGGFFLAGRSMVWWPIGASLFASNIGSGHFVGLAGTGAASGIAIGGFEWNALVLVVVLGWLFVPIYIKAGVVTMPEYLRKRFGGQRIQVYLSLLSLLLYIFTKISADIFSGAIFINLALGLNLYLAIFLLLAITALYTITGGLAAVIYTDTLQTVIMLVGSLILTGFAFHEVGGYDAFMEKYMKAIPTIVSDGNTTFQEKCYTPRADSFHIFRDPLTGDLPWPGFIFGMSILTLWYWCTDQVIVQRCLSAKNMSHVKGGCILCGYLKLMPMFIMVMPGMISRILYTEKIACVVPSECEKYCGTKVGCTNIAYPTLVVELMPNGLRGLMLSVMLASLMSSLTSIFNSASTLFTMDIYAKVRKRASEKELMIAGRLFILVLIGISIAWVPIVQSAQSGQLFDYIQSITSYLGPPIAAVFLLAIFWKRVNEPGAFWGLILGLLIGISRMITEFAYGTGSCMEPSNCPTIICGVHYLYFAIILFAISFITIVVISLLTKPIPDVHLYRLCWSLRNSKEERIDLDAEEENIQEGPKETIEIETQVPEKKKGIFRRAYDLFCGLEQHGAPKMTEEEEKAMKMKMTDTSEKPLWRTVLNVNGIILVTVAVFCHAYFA

[3] = system: facilitative glucose transporters (GLUTs)
SGLT2 = biological target: T2, SGLT2 (Homo sapiens, UniProt P31639); settings: read-out: Km values for uptake
T2 sequence (P31639 1-672): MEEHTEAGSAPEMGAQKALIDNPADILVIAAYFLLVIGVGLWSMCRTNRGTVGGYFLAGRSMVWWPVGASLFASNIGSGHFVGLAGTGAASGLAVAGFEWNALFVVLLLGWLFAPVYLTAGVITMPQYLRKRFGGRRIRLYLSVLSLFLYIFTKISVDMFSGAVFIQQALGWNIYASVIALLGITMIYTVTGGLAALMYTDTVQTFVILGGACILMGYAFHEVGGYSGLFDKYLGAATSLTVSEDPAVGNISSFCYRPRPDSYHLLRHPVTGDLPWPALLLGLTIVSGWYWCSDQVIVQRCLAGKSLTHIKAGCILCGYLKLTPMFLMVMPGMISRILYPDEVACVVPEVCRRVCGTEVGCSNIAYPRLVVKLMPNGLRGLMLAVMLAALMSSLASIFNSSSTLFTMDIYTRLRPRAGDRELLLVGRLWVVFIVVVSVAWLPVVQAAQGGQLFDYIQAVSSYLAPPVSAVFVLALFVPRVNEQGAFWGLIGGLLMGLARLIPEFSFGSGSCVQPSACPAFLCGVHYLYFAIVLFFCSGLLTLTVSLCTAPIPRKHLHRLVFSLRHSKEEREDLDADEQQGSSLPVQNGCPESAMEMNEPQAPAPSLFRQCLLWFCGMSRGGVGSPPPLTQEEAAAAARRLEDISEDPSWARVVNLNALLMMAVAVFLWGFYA

With O=C(CCc1ccc(O)cc1)c1c(O)cc(O)cc1O[C@@H]1O[C@H](CO)[C@@H](O)[C@H](O)[C@H]1O [phlorizin] as the compound, how does the “in vivo effect on glucose excretion and plasma glucose” value ([1]; diabetic rodent models and one canine diabetes model) read?
The value was “promoting glucose excretion, lowering fasting and fed plasma glucose, and promoting glucose utilization without hypoglycemic side effects”.

What about the “adverse effects of treatment” value ([1]; treatment for as long as two weeks) of the same compound?
The value was “No adverse effects on plasma ion balance, renal function or renal morphology”.

And the “hypoglycemic or other adverse effects” value (normal animals)?
Its value is “no hypoglycemic or other adverse effects”.

And the “stability in the gut” value [2]?
The value was “hydrolyzed in the gut to its aglycone phloretin”.

Which substrate specificity (SGLT1; SGLT1 versus SGLT2) does the source give for O=C[C@H](O)[C@@H](O)[C@@H](O)[C@H](O)CO [galactose] here?
The substrate specificity was “substrate for SGLT1 only”.

Which “inhibition of facilitated glucose transport” value [3] does the source give for O=C(CCc1ccc(O)cc1)c1c(O)cc(O)cc1O [phloretin] here?
Its value is “potent inhibitor of facilitated glucose transport”.

For CO[C@H]1O[C@H](CO)[C@@H](O)[C@H](O)[C@H]1O [AMG, α-methyl-D-glucopyranoside], which Km (SGLT1; SGLT1, read-out: Km values for uptake) is on record?
Its Km is 400 µM.

And the Km (SGLT2)?
The Km was 1.6 mM.
